Assay results: US20100267561A1, “HERBICIDAL PYRIDAZINONE DERIVATIVES” (priority 2007, published 2010)

Assays:
Assay type in all cases: in vivo
[1] = system: barnyardgrass (Echinochloa crus-galli); experiment: Test A pre-/postemergence plant response
Summary of the method: (§1)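 Greenhouse pot test: loam–sand soil; pre- and postemergence sprays applied same day; post plants 2–10 cm, 1–2 leaves. Readout ~10 d, visual % injury vs untreated (0 = none, 100 = complete control).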

[2] = system: corn (Zea mays); experiment: Test A pre-/postemergence plant response
Summary of the method: as §1

[3] = system: giant foxtail (Setaria faberi); experiment: Test A pre-/postemergence plant response
Summary of the method: as §1

[4] = system: large crabgrass (Digitaria sanguinalis); experiment: Test A pre-/postemergence plant response
Summary of the method: as §1

[5] = system: morningglory (Ipomoea coccinea); experiment: Test A pre-/postemergence plant response
Summary of the method: as §1

[6] = system: pigweed (Amaranthus retroflexus); experiment: Test A pre-/postemergence plant response
Summary of the method: as §1

[7] = system: velvetleaf (Abutilon theophrasti); experiment: Test A pre-/postemergence plant response
Summary of the method: as §1

[8] = system: wheat (Triticum aestivum); experiment: Test A pre-/postemergence plant response
Summary of the method: as §1

[9] = system: surinam grass (Brachiaria decumbens); experiment: Test B pre-/postemergence plant response; settings: for Surinam Grass plant response rating: 8 g ai/ha
Description: Seeds of plant species selected from blackgrass (Alopecurus myosuroides), downy bromegrass (Bromus tectorum), green foxtail (Setaria viridis), Italian ryegrass (Lolium multiflorum), wheat (Triticum aestivum), wild oat (Avena fatua), catchweed bedstraw (Galium aparine), bermudagrass (Cynodon dactylon), surinam grass (Brachiaria decumbens), cocklebur (Xanthium strumarium), corn (Zea mays), large crabgrass (Digitaria sanguinalis), woolly cupgrass (Eriochloa villosa), giant foxtail (Setaria faberii), goosegrass (Eleusine indica), johnsongrass (Sorghum halepense), kochia (Kochia scoparia), lambsquarters (Chenopodium album), morningglory (Ipomoea coccinea), eastern black (E.B.) nightshade (Solanum ptycanthum), yellow nutsedge (Cyperus esculentus), pigweed (Amaranthus retroflexus), common ragweed (Ambrosia elation), Russian thistle (Salsola iberica), soybean (Glycine max), common (oilseed) sunflower (Helianthus annuus), and velvetleaf (Abutilon theophrasti) were planted and treated preemergence with test chemicals formulated in a non-phytotoxic solvent mixture which included a surfactant.
At the same time, plants selected from these crop and weed species and also winter barley (Hordeum vulgare), canarygrass (Phalaris minor), chickweed (Stellaria media) and windgrass (Apera spica-venti) were treated with postemergence applications of some of the test chemicals formulated in the same manner. Plants ranged in height from 2 to 18 cm (1- to 4-leaf stage) for postemergence treatments.
Plant species in the flooded paddy test consisted of rice (Oryza sativa), umbrella sedge (Cyperus difformis), ducksalad (Heteranthera limosa) and barnyardgrass (Echinochloa crus-galli) grown to the 2-leaf stage for testing. At time of treatment, test pots were flooded to 3 cm above the soil surface, treated by application of test compounds directly to the paddy water, and then maintained at that water depth for the duration of the test. Treated plants and controls were maintained in a greenhouse for 13 to 15 days, after which time all species were compared to controls and visually evaluated. Plant response ratings, summarized in Table B, are based on a scale of 0 to 100 where 0 is no effect and 100 is complete control. A dash (-) response means no test result.

[10] = system: canarygrass (Phalaris minor); experiment: Test B postemergence plant response; settings: for Canarygrass plant response rating: 8 g ai/ha, postemergence, 0-100 scale; for Plant response rating, Canarygrass: Postemergence
Summary of the method: (§2)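 Visual injury ratings on a 0–100 scale, where 100 means complete control, were made 13 to 15 days after postemergence treatment of greenhouse-grown plants at the 1- to 4-leaf stage.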

[11] = system: chickweed (Stellaria media); experiment: Test B postemergence plant response; settings: for Chickweed plant response rating: 8 g ai/ha, postemergence, 0-100 scale; for Plant response rating, Chickweed: Postemergence
Summary of the method: as §2

[12] = system: windgrass (Apera spica-venti); experiment: Test B postemergence plant response; settings: for Windgrass plant response rating: 8 g ai/ha, postemergence, 0-100 scale; for Plant response rating, Windgrass: Postemergence
Summary of the method: as §2

[13] = system: winter barley (Hordeum vulgare); experiment: Test B postemergence plant response; settings: for Barley plant response rating: 8 g ai/ha, postemergence, 0-100 scale; for Plant response rating, Barley: Postemergence
Summary of the method: as §2

[14] = Postemergence, 125 g ai/ha, 0 to 100 scale, 0 no effect, 100 complete control
[15] = Postemergence, 500 g ai/ha, 0 to 100 scale, 0 no effect, 100 complete control
[16] = Preemergence, 125 g ai/ha, 0 to 100 scale (0 no effect, 100 complete control)
[17] = Preemergence, 500 g ai/ha, 0 to 100 scale (0 no effect, 100 complete control)
[18] = Postemergence, 16 g ai/ha, scale 0 to 100
[19] = Postemergence, 31 g ai/ha, scale 0 to 100, 0 no effect, 100 complete control
[20] = Postemergence, 62 g ai/ha, scale 0 to 100
[21] = Preemergence, 16 g ai/ha, scale 0 to 100 (0 no effect, 100 complete control)
[22] = Preemergence, 31 g ai/ha, 0 to 100 scale, 0 no effect, 100 complete control
[23] = Preemergence, 62 g ai/ha, scale 0 to 100
[24] = 31 g ai/ha, scale 0 to 100, 0 no effect, 100 complete control
[25] = 16 g ai/ha, scale 0 to 100, 0 no effect, 100 complete control
[26] = Postemergence, 31 g ai/ha, 0 to 100 scale (0 no effect, 100 complete control)
[27] = Preemergence, 31 g ai/ha, 0 to 100 scale, 0 is no effect, 100 is complete control

CCc1cc(-c2ccc(C(F)(F)F)cc2)nn1-c1c(OS(C)(=O)=O)cnn(C)c1=O [Compound 19]
98: Plant response rating, Surinam Grass [9, 22]
60: Plant response rating, Wheat [8, 14]
0: Plant response rating, Morningglory [5, 14] | Plant response rating, Morningglory [5, 15] | Plant response rating, Morningglory [5, 16] | Plant response rating, Morningglory [5, 17] | Plant response rating, Pigweed [6, 14] | Plant response rating, Pigweed [6, 15] | Plant response rating, Pigweed [6, 16] | Plant response rating, Pigweed [6, 17] | Plant response rating, Velvetleaf [7, 14] | Plant response rating, Velvetleaf [7, 15] | Plant response rating, Velvetleaf [7, 16] | Plant response rating, Velvetleaf [7, 17] | Canarygrass plant response rating [10] | Chickweed plant response rating [11] | Plant response rating, Chickweed ([11]; 16 g ai/ha, scale 0 to 100) | Plant response rating, Chickweed ([11]; 62 g ai/ha, scale 0 to 100) | Barley plant response rating [13]
20: Plant response rating, Canarygrass ([10]; 16 g ai/ha, scale 0 to 100) | Plant response rating, Canarygrass [10, 24]
80: Plant response rating, Corn [2, 16] | Plant response rating, Surinam Grass [9, 21] | Surinam Grass plant response rating ([9]; Preemergence, scale 0 to 100)
90: Plant response rating, Corn [2, 14] | Plant response rating, Corn [2, 15] | Plant response rating, Corn [2, 17] | Plant response rating, Crabgrass, Large [4, 14] | Plant response rating, Wheat [8, 15] | Plant response rating, Wheat [8, 16] | Surinam Grass plant response rating ([9]; postemergence, 0-100 scale) | Windgrass plant response rating [12] | Plant response rating, Barley ([13]; 62 g ai/ha, scale 0 to 100)
100: Plant response rating, Barnyardgrass [1, 14] | Plant response rating, Barnyardgrass [1, 15] | Plant response rating, Barnyardgrass [1, 16] | Plant response rating, Barnyardgrass [1, 17] | Plant response rating, Foxtail, Giant [3, 14] | Plant response rating, Foxtail, Giant [3, 15] | Plant response rating, Foxtail, Giant [3, 16] | Plant response rating, Foxtail, Giant [3, 17] | Plant response rating, Crabgrass, Large [4, 15] | Plant response rating, Crabgrass, Large [4, 16] | Plant response rating, Crabgrass, Large [4, 17] | Plant response rating, Wheat [8, 17] | Plant response rating, Surinam Grass [9, 18] | Plant response rating, Surinam Grass [9, 19] | Plant response rating, Surinam Grass [9, 20] | Plant response rating, Surinam Grass [9, 23] | Plant response rating, Canarygrass ([10]; 62 g ai/ha, scale 0 to 100) | Plant response rating, Windgrass [12, 24] | Plant response rating, Windgrass ([12]; 62 g ai/ha, scale 0 to 100)
95: Plant response rating, Windgrass ([12]; 16 g ai/ha, scale 0 to 100)
5: Plant response rating, Barley [13, 25] | Plant response rating, Barley [13, 24]

CCc1cc(-c2ccc(Cl)c(Cl)c2)nn1-c1c(O)cnn(C)c1=O [Compound 20]
20: Plant response rating, Surinam Grass [9, 21] | Windgrass plant response rating [12]
100: Plant response rating, Barnyardgrass [1, 15] | Plant response rating, Barnyardgrass [1, 17] | Plant response rating, Foxtail, Giant [3, 15] | Plant response rating, Foxtail, Giant [3, 17] | Plant response rating, Crabgrass, Large [4, 15] | Plant response rating, Crabgrass, Large [4, 17] | Plant response rating, Surinam Grass [9, 20] | Plant response rating, Surinam Grass [9, 23]
0: Plant response rating, Morningglory [5, 14] | Plant response rating, Morningglory [5, 15] | Plant response rating, Morningglory [5, 16] | Plant response rating, Morningglory [5, 17] | Plant response rating, Pigweed [6, 14] | Plant response rating, Pigweed [6, 15] | Plant response rating, Pigweed [6, 16] | Plant response rating, Pigweed [6, 17] | Plant response rating, Velvetleaf [7, 14] | Plant response rating, Velvetleaf [7, 15] | Plant response rating, Velvetleaf [7, 16] | Plant response rating, Velvetleaf [7, 17] | Surinam Grass plant response rating ([9]; Preemergence, scale 0 to 100) | Chickweed plant response rating [11] | Plant response rating, Chickweed ([11]; 16 g ai/ha, scale 0 to 100) | Plant response rating, Chickweed [11, 24] | Plant response rating, Chickweed ([11]; 62 g ai/ha, scale 0 to 100) | Barley plant response rating [13] | Plant response rating, Barley [13, 25] | Plant response rating, Barley [13, 24] | Plant response rating, Barley ([13]; 62 g ai/ha, scale 0 to 100)
90: Plant response rating, Barnyardgrass [1, 16] | Plant response rating, Corn [2, 15] | Plant response rating, Corn [2, 17] | Plant response rating, Foxtail, Giant [3, 14] | Plant response rating, Foxtail, Giant [3, 16] | Plant response rating, Crabgrass, Large [4, 16] | Plant response rating, Surinam Grass [9, 18] | Plant response rating, Surinam Grass [9, 19] | Plant response rating, Windgrass ([12]; 62 g ai/ha, scale 0 to 100)
85: Plant response rating, Windgrass [12, 24]
60: Plant response rating, Corn [2, 16] | Plant response rating, Wheat [8, 16] | Surinam Grass plant response rating ([9]; postemergence, 0-100 scale)
80: Plant response rating, Barnyardgrass [1, 14] | Plant response rating, Crabgrass, Large [4, 14] | Plant response rating, Wheat [8, 17]
70: Plant response rating, Corn [2, 14] | Plant response rating, Wheat [8, 15] | Plant response rating, Windgrass ([12]; 16 g ai/ha, scale 0 to 100)
5: Canarygrass plant response rating [10]
50: Plant response rating, Wheat [8, 14] | Plant response rating, Surinam Grass [9, 22] | Plant response rating, Canarygrass [10, 24]
30: Plant response rating, Canarygrass ([10]; 16 g ai/ha, scale 0 to 100)

CCc1cc(-c2ccc(F)cc2)nn1-c1c(O)cnn(C)c1=O [Compound 25]
85: Plant response rating, Surinam Grass [9, 21] | Plant response rating, Surinam Grass [9, 22]
50: Plant response rating, Barnyardgrass [1, 27] | Plant response rating, Corn [2, 16] | Plant response rating, Wheat [8, 16] | Surinam Grass plant response rating ([9]; postemergence, 0-100 scale) | Surinam Grass plant response rating ([9]; Preemergence, scale 0 to 100)
40: Plant response rating, Foxtail, Giant [3, 27] | Windgrass plant response rating [12]
80: Plant response rating, Barnyardgrass [1, 26] | Plant response rating, Corn [2, 14]
0: Plant response rating, Corn [2, 27] | Plant response rating, Morningglory [5, 26] | Plant response rating, Morningglory [5, 14] | Plant response rating, Morningglory [5, 27] | Plant response rating, Morningglory [5, 16] | Plant response rating, Pigweed [6, 26] | Plant response rating, Pigweed [6, 14] | Plant response rating, Pigweed [6, 27] | Plant response rating, Pigweed [6, 16] | Plant response rating, Velvetleaf [7, 26] | Plant response rating, Velvetleaf [7, 14] | Plant response rating, Velvetleaf [7, 27] | Plant response rating, Velvetleaf [7, 16] | Plant response rating, Wheat [8, 26] | Plant response rating, Wheat [8, 27] | Canarygrass plant response rating [10] | Plant response rating, Canarygrass ([10]; 16 g ai/ha, scale 0 to 100) | Plant response rating, Canarygrass [10, 24] | Chickweed plant response rating [11] | Plant response rating, Chickweed ([11]; 16 g ai/ha, scale 0 to 100) | Plant response rating, Chickweed [11, 24] | Plant response rating, Chickweed ([11]; 62 g ai/ha, scale 0 to 100) | Barley plant response rating [13] | Plant response rating, Barley [13, 25] | Plant response rating, Barley [13, 24] | Plant response rating, Barley ([13]; 62 g ai/ha, scale 0 to 100)
10: Plant response rating, Canarygrass ([10]; 62 g ai/ha, scale 0 to 100)
20: Plant response rating, Corn [2, 26] | Plant response rating, Crabgrass, Large [4, 27] | Plant response rating, Wheat [8, 14]
95: Plant response rating, Surinam Grass [9, 19]
100: Plant response rating, Barnyardgrass [1, 14] | Plant response rating, Barnyardgrass [1, 16] | Plant response rating, Foxtail, Giant [3, 14] | Plant response rating, Foxtail, Giant [3, 16] | Plant response rating, Surinam Grass [9, 20] | Plant response rating, Surinam Grass [9, 23]
60: Plant response rating, Crabgrass, Large [4, 26] | Plant response rating, Surinam Grass [9, 18] | Plant response rating, Windgrass ([12]; 16 g ai/ha, scale 0 to 100) | Plant response rating, Windgrass [12, 24]
98: Plant response rating, Windgrass ([12]; 62 g ai/ha, scale 0 to 100)
90: Plant response rating, Foxtail, Giant [3, 26] | Plant response rating, Crabgrass, Large [4, 14] | Plant response rating, Crabgrass, Large [4, 16]
